Measured values reported in ChEMBL document CHEMBL1137136, “Change in liver and plasma ceramides during D-galactosamine-induced acute hepatic injury by LC-MS/MS” (2004).
Several values for one entry are separate records, joined by “and”; a condition that tells them apart may be missing. Equal entries are not always repeated.

Assays:
Assay type in all cases: functional
Rattus norvegicus [1] = assay: Concentration of C22:1 ceramide in liver of D-galactosamine treated rats after 18 hr at dose of 1 g/kg intraperitoneally
Rattus norvegicus [2] = assay: Concentration of C22:1 ceramide in liver of D-galactosamine treated rats after 24 hr at dose of 1 g/kg intraperitoneally
Rattus norvegicus [3] = assay: Concentration of C22:2 ceramide in liver of D-galactosamine treated rats after 18 hr at dose of 1 g/kg intraperitoneally
Rattus norvegicus [4] = assay: Concentration of C22:2 ceramide in liver of D-galactosamine treated rats after 24 hr at dose of 1 g/kg intraperitoneally
Rattus norvegicus [5] = assay: Concentration of C24:0 ceramide in liver of D-galactosamine treated rats after 18 hr at dose of 1 g/kg intraperitoneally
Rattus norvegicus [6] = assay: Concentration of C24:0 ceramide in liver of D-galactosamine treated rats after 24 hr at dose of 1 g/kg intraperitoneally
Rattus norvegicus [7] = assay: Concentration of C24:1 ceramide in liver of D-galactosamine treated rats after 18 hr at dose of 1 g/kg intraperitoneally
Rattus norvegicus [8] = assay: Concentration of C24:1 ceramide in liver of D-galactosamine treated rats after 24 hr at dose of 1 g/kg intraperitoneally
Rattus norvegicus [9] = assay: Concentration of C24:2 ceramide in liver of D-galactosamine treated rats after 18 hr at dose of 1 g/kg intraperitoneally
Rattus norvegicus [10] = assay: Concentration of C24:2 ceramide in liver of D-galactosamine treated rats after 24 hr at dose of 1 g/kg intraperitoneally
Rattus norvegicus [11] = assay: Plasma GOT level was observed after 18 hr of D-galactosamine administration at 1 g/kg intraperitoneally
Rattus norvegicus [12] = assay: Plasma GOT level was observed after 24 hr of D-galactosamine administration at 1 g/kg intraperitoneally
Rattus norvegicus [13] = assay: Plasma GPT level was observed after 18 hr of D-galactosamine administration at 1 g/kg intraperitoneally
Rattus norvegicus [14] = assay: Plasma GPT level was observed after 24 hr of D-galactosamine administration at 1 g/kg intraperitoneally
Rattus norvegicus [15] = assay: Concentration of C16:0 ceramide in liver of D-galactosamine treated rats after 18 hr at dose of 1 g/kg intraperitoneally
Rattus norvegicus [16] = assay: Concentration of C16:0 ceramide in liver of D-galactosamine treated rats after 24 hr at dose of 1 g/kg intraperitoneally
Rattus norvegicus [17] = assay: Concentration of C18:0 ceramide in liver of D-galactosamine treated rats after 18 hr at dose of 1 g/kg intraperitoneally
Rattus norvegicus [18] = assay: Concentration of C18:0 ceramide in liver of D-galactosamine treated rats after 24 hr at dose of 1 g/kg intraperitoneally
Rattus norvegicus [19] = assay: Concentration of C20:0 ceramide in liver of D-galactosamine treated rats after 18 h at dose of 1 g/kg intraperitoneally
Rattus norvegicus [20] = assay: Concentration of C20:0 ceramide in liver of D-galactosamine treated rats after 24 hr at dose of 1 g/kg intraperitoneally
Rattus norvegicus [21] = assay: Concentration of C22:0 ceramide in liver of D-galactosamine treated rats after 18 hr at dose of 1 g/kg intraperitoneally
Rattus norvegicus [22] = assay: Concentration of C22:0 ceramide in liver of D-galactosamine treated rats after 24 hr at dose of 1 g/kg intraperitoneally
Rattus norvegicus [23] = assay: Concentration of C16:0 ceramide in plasma of D-galactosamine treated rats after 18 h at dose of 1 g/kg intraperitoneally
Rattus norvegicus [24] = assay: Concentration of C16:0 ceramide in plasma of D-galactosamine treated rats after 24 hr at dose of 1 g/kg intraperitoneally
Rattus norvegicus [25] = assay: Concentration of C18:0 ceramide in plasma of D-galactosamine treated rats after 18 h at dose of 1 g/kg intraperitoneally
Rattus norvegicus [26] = assay: Concentration of C18:0 ceramide in plasma of D-galactosamine treated rats after 24 hr at dose of 1 g/kg intraperitoneally
Rattus norvegicus [27] = assay: Concentration of C20:0 ceramide in plasma of D-galactosamine treated rats after 18 hr at dose of 1 g/kg intraperitoneally
Rattus norvegicus [28] = assay: Concentration of C20:0 ceramide in plasma of D-galactosamine treated rats after 24 hr at dose of 1 g/kg intraperitoneally
Rattus norvegicus [29] = assay: Concentration of C22:1 ceramide in plasma of D-galactosamine treated rats after 18 hr at dose of 1 g/kg intraperitoneally
Rattus norvegicus [30] = assay: Concentration of C22:2 ceramide in plasma of D-galactosamine treated rats after 18 hr at dose of 1 g/kg intraperitoneally
Rattus norvegicus [31] = assay: Concentration of C22:2 ceramide in plasma of D-galactosamine treated rats after 24 hr at dose of 1 g/kg intraperitoneally
Rattus norvegicus [32] = assay: Concentration of C24:0 ceramide in plasma of D-galactosamine treated rats after 18 hr at dose of 1 g/kg intraperitoneally
Rattus norvegicus [33] = assay: Concentration of C24:0 ceramide in plasma of D-galactosamine treated rats after 24 hr at dose of 1 g/kg intraperitoneally
Rattus norvegicus [34] = assay: Concentration of C24:1 ceramide in plasma of D-galactosamine treated rats after 18 hr at dose of 1 g/kg intraperitoneally
Rattus norvegicus [35] = assay: Concentration of C24:1 ceramide in plasma of D-galactosamine treated rats after 24 hr at dose of 1 g/kg intraperitoneally
Rattus norvegicus [36] = assay: Concentration of C24:2 ceramide in plasma of D-galactosamine treated rats after 18 hr at dose of 1 g/kg intraperitoneally

N[C@H]1C(O)O[C@H](CO)[C@@H](O)[C@@H]1O (stereo partly specified) [GLUCOSAMINE]
Activity (Rattus norvegicus [1]): 4.6 nmol/g tissue
Activity (Rattus norvegicus [2]): 7.1 nmol/g tissue
Activity (Rattus norvegicus [3]): 4.8 nmol/g tissue
Activity (Rattus norvegicus [4]): 7 nmol/g tissue
Activity (Rattus norvegicus [5]): 173.7 nmol/g tissue
Activity (Rattus norvegicus [6]): 166.3 nmol/g tissue
Activity (Rattus norvegicus [7]): 59.6 nmol/g tissue
Activity (Rattus norvegicus [8]): 67.2 nmol/g tissue
Activity (Rattus norvegicus [9]): 12.4 nmol/g tissue
Activity (Rattus norvegicus [10]): 12.4 nmol/g tissue
Activity (Rattus norvegicus [11]): 2516 Karmen
Activity (Rattus norvegicus [12]): 18480 Karmen
Activity (Rattus norvegicus [13]): 1208 Karmen
Activity (Rattus norvegicus [14]): 7280 Karmen
Activity (Rattus norvegicus [15]): 43.9 nmol/g tissue
Activity (Rattus norvegicus [16]): 36.2 nmol/g tissue
Activity (Rattus norvegicus [17]): 11.1 nmol/g tissue
Activity (Rattus norvegicus [18]): 11.5 nmol/g tissue
Activity (Rattus norvegicus [19]): 3.9 nmol/g tissue
Activity (Rattus norvegicus [20]): 5.6 nmol/g tissue
Activity (Rattus norvegicus [21]): 37.8 nmol/g tissue
Activity (Rattus norvegicus [22]): 35.6 nmol/g tissue
Activity (Rattus norvegicus [23]): 1.06 nmol/g tissue
Activity (Rattus norvegicus [24]): 3.13 nmol/g tissue
Activity (Rattus norvegicus [25]): 0.18 nmol/g tissue
Activity (Rattus norvegicus [26]): 0.9 nmol/g tissue
Activity (Rattus norvegicus [27]): 0.42 nmol/g tissue
Activity (Rattus norvegicus [28]): 0.65 nmol/g tissue
Activity (Rattus norvegicus [29]): 5.45 nmol/g tissue
Activity (Rattus norvegicus [30]): 2.57 nmol/g tissue
Activity (Rattus norvegicus [31]): 2.33 nmol/g tissue
Activity (Rattus norvegicus [32]): 6.31 nmol/g tissue
Activity (Rattus norvegicus [33]): 26.31 nmol/g tissue
Activity (Rattus norvegicus [34]): 5.78 nmol/g tissue
Activity (Rattus norvegicus [35]): 13.83 nmol/g tissue
Activity (Rattus norvegicus [36]): 0.98 nmol/g tissue and 1.94 nmol/g tissue
